Assay results: ChEMBL document CHEMBL5058564, “EUbOPEN Chemogenomics Library 2 (Incucyte)” (2022)
Where a SMILES comes first, the peptide text is derived from it. Bridges are numbered along the chain shown (N, C = ends). [ ]: non-standard residue; d: D form. Orn = NCCC[C@H](N)C(=O)O; Mpa = O=C(O)CCS

How the values were obtained:
Assay type in all cases: toxicity, cell-based
[1] = test system: HEK-293T; experiment: Incucyte cell viability with HEK293T; settings: human, 10 µM, compound concentration 10 uM
[2] = test system: Fibroblast; experiment: Incucyte cell viability with human fibroblast; settings: 10 µM, compound concentration 10 uM
[3] = test system: U2OS; experiment: Incucyte cell viability with U2OS; settings: human, 10 µM, compound concentration 10 uM
[4] = 0 h, replicate number 1, timepoint 0 hours
[5] = 6 h, replicate number 2, timepoint 6 hours
[6] = 12 h, replicate number 2, timepoint 12 hours
[7] = 18 h, replicate number 2, timepoint 18 hours
[8] = 24 h, replicate number 2, timepoint 24 hours
[9] = 0 h, replicate number 2, timepoint 0 hours
[10] = 12 h, replicate number 1, timepoint 12 hours
[11] = 18 h, replicate number 1, timepoint 18 hours
[12] = 6 h, replicate number 1, timepoint 6 hours
[13] = 24 h, replicate number 1, timepoint 24 hours
Also: unitless GR value; below 1 slowed growth and below 0 cell loss.

Q: For `CCOc1ccc(C[C@H]2NC(=O)CCSSC[C@@H](C(=O)N3CCC[C@H]3C(=O)N[C@@H](CCCN)C(=O)NCC(N)=O)NC(=O)[C@H](CC(N)=O)NC(=O)[C@H]([C@@H](C)O)NC(=O)[C@H]([C@@H](C)CC)NC2=O)cc1` [ATOSIBAN] ([Mpa][dY](Et)ITNCP[Orn]G-NH2; disulfide 1-6), which “Growth Rate” value [1, 4] is on record?
A: 0.87

Q: And the “Growth Rate” value [1, 5]?
A: 0.92

Q: What about the “Growth Rate” value [1, 6] of the same molecule?
A: 0.83

Q: What about the “Growth Rate” value [1, 7] of the same molecule?
A: 0.78

Q: What about the “Growth Rate” value [1, 8] of the same molecule?
A: 0.7

Q: And the “Growth Rate” value [2, 4]?
A: 0.49

Q: And the “Growth Rate” value [2, 9]?
A: 0.42

Q: And the “Growth Rate” value [2, 5]?
A: 0.56

Q: What about the “Growth Rate” value [2, 10] of the same molecule?
A: 0.64

Q: And the “Growth Rate” value [2, 6]?
A: 0.4

Q: What about the “Growth Rate” value [3, 9] of the same molecule?
A: -1

Q: What about the “Growth Rate” value [3, 5] of the same molecule?
A: 0.76

Q: What about the “Growth Rate” value [3, 6] of the same molecule?
A: 0.97

Q: What about the “Growth Rate” value [3, 11] of the same molecule?
A: 0.79

Q: What about the “Growth Rate” value [3, 7] of the same molecule?
A: 0.89

Q: Which “Growth Rate” value [1, 12] does the source give for `CN1[C@@H]2CC[C@H]1C[C@@H](OC(=O)C(CO)c1ccccc1)C2` (stereo not given in full) [ATROPINE] here?
A: 0.9

Q: What about the “Growth Rate” value [1, 5] of the same molecule?
A: 0.19

Q: And the “Growth Rate” value [1, 10]?
A: 0.68

Q: What about the “Growth Rate” value [1, 6] of the same molecule?
A: 0.53

Q: And the “Growth Rate” value [1, 11]?
A: 0.6

Q: What about the “Growth Rate” value [1, 7] of the same molecule?
A: 0.65

Q: What about the “Growth Rate” value [1, 13] of the same molecule?
A: 0.44

Q: And the “Growth Rate” value [1, 8]?
A: 0.6

Q: What about the “Growth Rate” value [2, 4] of the same molecule?
A: -0.04

Q: What about the “Growth Rate” value [2, 9] of the same molecule?
A: -0.32

Q: What about the “Growth Rate” value [2, 7] of the same molecule?
A: 0.91

Q: What about the “Growth Rate” value [3, 12] of the same molecule?
A: 0.86

Q: What about the “Growth Rate” value [3, 10] of the same molecule?
A: 0.79

Q: What about the “Growth Rate” value [3, 6] of the same molecule?
A: 0.96

Q: What about the “Growth Rate” value [3, 7] of the same molecule?
A: 0.95

Q: What does the source list for `CC(=O)Nc1cccc2c1c(Sc1ccc(Cl)cc1)c(C)n2CC(=O)O` [AZD1981]?
A: Growth Rate [1, 9]: 0.75; Growth Rate [1, 12]: 0.62; Growth Rate [1, 10]: 0.62; Growth Rate [1, 11]: 0.83; Growth Rate [1, 13]: 0.71; Growth Rate [2, 9]: 0.38; Growth Rate [2, 12]: 0.15; Growth Rate [2, 5]: 0.04; Growth Rate [2, 10]: 0.35; Growth Rate [2, 6]: 0.14; Growth Rate [2, 7]: 0.25; Growth Rate [2, 13]: 0.73; Growth Rate [2, 8]: 0.26; Growth Rate [3, 5]: 0.93; Growth Rate [3, 7]: 0.89; Growth Rate [3, 8]: 0.95

Q: How did the “Growth Rate” value [1, 10] turn out when `CC(C)C[C@H](CO)Nc1nc(S[C@@H](C)c2ccccc2)nc2nc(N)sc12` [AZD-8797] was run?
A: 0.77

Q: And the “Growth Rate” value [1, 6]?
A: 0.99

Q: And the “Growth Rate” value [1, 11]?
A: 0.82

Q: What about the “Growth Rate” value [1, 13] of the same molecule?
A: 0.93

Q: And the “Growth Rate” value [2, 4]?
A: 0.26

Q: And the “Growth Rate” value [2, 12]?
A: 0.37

Q: What about the “Growth Rate” value [2, 10] of the same molecule?
A: 0.47

Q: And the “Growth Rate” value [2, 11]?
A: 0.83

Q: What about the “Growth Rate” value [2, 13] of the same molecule?
A: 0.54

Q: And the “Growth Rate” value [3, 9]?
A: -1

Q: What about the “Growth Rate” value [3, 10] of the same molecule?
A: 0.93

Q: What about the “Growth Rate” value [3, 6] of the same molecule?
A: 0.82

Q: What about the “Growth Rate” value [3, 7] of the same molecule?
A: 0.7

Q: What about the “Growth Rate” value [3, 8] of the same molecule?
A: 0.79

Q: What does the source list for `COc1cc(NC(=O)CCN2CCC(OC(=O)Nc3ccccc3-c3ccccc3)CC2)c(Cl)cc1CNC[C@H](O)c1ccc(O)c2[nH]c(=O)ccc12` [BATEFENTEROL]?
A: Growth Rate [1, 4]: -0.23; Growth Rate [1, 9]: 0.01; Growth Rate [1, 10]: 0.88; Growth Rate [1, 6]: 0.79; Growth Rate [1, 11]: 0.8; Growth Rate [1, 7]: 1; Growth Rate [2, 4]: -0.65; Growth Rate [2, 9]: 0.38; Growth Rate [3, 9]: -1; Growth Rate [3, 11]: 0.93; Growth Rate [3, 7]: 0.95; Growth Rate [3, 13]: 1; Growth Rate [3, 8]: 0.9

Q: `CCc1ccccc1C(=O)Nc1n[nH]c2c(C)c(F)c(C3C(C#N)=C(C)N(C)C(C)=C3C#N)cc12` [BAY-3827] was tested. Which “Growth Rate” value [1, 9] did it give?
A: -1

Q: And the “Growth Rate” value [1, 12]?
A: 0.43

Q: What about the “Growth Rate” value [1, 10] of the same molecule?
A: 0.35

Q: And the “Growth Rate” value [1, 11]?
A: 0.5

Q: And the “Growth Rate” value [1, 13]?
A: 0.55

Q: And the “Growth Rate” value [2, 4]?
A: 0.51

Q: And the “Growth Rate” value [2, 9]?
A: -0.4

Q: And the “Growth Rate” value [2, 12]?
A: 0.12

Q: What about the “Growth Rate” value [2, 10] of the same molecule?
A: 0.64

Q: And the “Growth Rate” value [2, 11]?
A: 0.79

Q: What about the “Growth Rate” value [2, 13] of the same molecule?
A: 0.56

Q: What about the “Growth Rate” value [3, 9] of the same molecule?
A: 0.74

Q: What about the “Growth Rate” value [3, 8] of the same molecule?
A: 0.87

Q: What does the source list for `CCC(=O)OCC(=O)[C@@]1(OC(=O)CC)[C@@H](C)C[C@H]2[C@@H]3CCC4=CC(=O)C=C[C@]4(C)[C@@]3(Cl)[C@@H](O)C[C@@]21C` [BECLOMETHASONE DIPROPIONATE]?
A: Growth Rate [1, 4]: 0.14; Growth Rate [1, 9]: -0.33; Growth Rate [1, 12]: 0.91; Growth Rate [1, 10]: 0.61; Growth Rate [1, 6]: 0.8; Growth Rate [1, 11]: 0.62; Growth Rate [1, 7]: 0.78; Growth Rate [1, 13]: 0.65; Growth Rate [1, 8]: 0.83; Growth Rate [2, 4]: -0.17; Growth Rate [2, 9]: -0.56; Growth Rate [3, 4]: -0.25; Growth Rate [3, 9]: 0.62; Growth Rate [3, 12]: 0.73; Growth Rate [3, 10]: 0.81; Growth Rate [3, 6]: 0.85; Growth Rate [3, 11]: 0.8; Growth Rate [3, 7]: 0.81; Growth Rate [3, 13]: 0.78; Growth Rate [3, 8]: 0.9

Q: `O=C(NC[C@@H]1[C@H]2CN(C(=O)OCc3cc(C(F)(F)F)cc(C(F)(F)F)c3)C[C@@H]12)c1ccc2[nH]nnc2c1` [BI 2545] was tested. Which “Growth Rate” value [1, 12] did it give?
A: 0.33

Q: And the “Growth Rate” value [1, 5]?
A: 0.67

Q: What about the “Growth Rate” value [1, 10] of the same molecule?
A: 0.61

Q: And the “Growth Rate” value [1, 6]?
A: 0.92

Q: What about the “Growth Rate” value [1, 11] of the same molecule?
A: 0.65

Q: And the “Growth Rate” value [1, 13]?
A: 0.64

Q: What about the “Growth Rate” value [1, 8] of the same molecule?
A: 0.88

Q: And the “Growth Rate” value [2, 12]?
A: -0.83

Q: What about the “Growth Rate” value [2, 5] of the same molecule?
A: -0.59

Q: And the “Growth Rate” value [2, 10]?
A: -0.64

Q: What about the “Growth Rate” value [2, 6] of the same molecule?
A: -0.1

Q: And the “Growth Rate” value [2, 11]?
A: -0.55

Q: What about the “Growth Rate” value [2, 7] of the same molecule?
A: 0.22

Q: And the “Growth Rate” value [2, 13]?
A: -0.35

Q: What about the “Growth Rate” value [2, 8] of the same molecule?
A: 0.57

Q: What about the “Growth Rate” value [3, 9] of the same molecule?
A: 0.37

Q: What about the “Growth Rate” value [3, 10] of the same molecule?
A: 0.93

Q: What about the “Growth Rate” value [3, 11] of the same molecule?
A: 0.99

Q: How did the “Growth Rate” value [1, 4] turn out when `Cc1nccc(COC(=O)N2C[C@@H]3[C@@H](CNC(=O)c4ccc5[nH]nnc5c4)[C@@H]3C2)n1` [BI 3017] was run?
A: 0.67

Q: What about the “Growth Rate” value [1, 9] of the same molecule?
A: 0.34

Q: And the “Growth Rate” value [1, 6]?
A: 0.9

Q: What about the “Growth Rate” value [2, 4] of the same molecule?
A: 0.35

Q: What about the “Growth Rate” value [2, 9] of the same molecule?
A: 0.77

Q: And the “Growth Rate” value [2, 12]?
A: 0.04

Q: What about the “Growth Rate” value [2, 10] of the same molecule?
A: 0.1

Q: What about the “Growth Rate” value [2, 11] of the same molecule?
A: 0.53

Q: What about the “Growth Rate” value [2, 13] of the same molecule?
A: 0.68

Q: And the “Growth Rate” value [3, 4]?
A: 0.07

Q: And the “Growth Rate” value [3, 9]?
A: 0.45

Q: What about the “Growth Rate” value [3, 12] of the same molecule?
A: 0.79

Q: And the “Growth Rate” value [3, 10]?
A: 0.75

Q: What about the “Growth Rate” value [3, 6] of the same molecule?
A: 0.9

Q: And the “Growth Rate” value [3, 11]?
A: 0.68

Q: What about the “Growth Rate” value [3, 7] of the same molecule?
A: 0.98

Q: What about the “Growth Rate” value [3, 13] of the same molecule?
A: 0.71

Q: `CC(C)C[C@@H]1NC(=O)[C@@H](C(C)C)NC(=O)[C@@H]2CCCN2C(=O)[C@@H](CC(=O)O)NC(=O)[C@@H](Cc2c[nH]c3ccccc23)NC1=O` [BQ-123] (cyclo(L[dW][dD]P[dV])) was tested. Which “Growth Rate” value [1, 9] did it give?
A: 0.79

Q: What about the “Growth Rate” value [1, 12] of the same molecule?
A: 0.89

Q: And the “Growth Rate” value [1, 10]?
A: 0.92

Q: What about the “Growth Rate” value [1, 11] of the same molecule?
A: 0.91

Q: And the “Growth Rate” value [1, 13]?
A: 0.97

Q: What about the “Growth Rate” value [2, 4] of the same molecule?
A: 0.41

Q: What about the “Growth Rate” value [2, 9] of the same molecule?
A: 0.34

Q: And the “Growth Rate” value [2, 12]?
A: 0.81

Q: And the “Growth Rate” value [2, 5]?
A: 0.18

Q: And the “Growth Rate” value [2, 10]?
A: 0.87

Q: What about the “Growth Rate” value [2, 6] of the same molecule?
A: 0.89

Q: What about the “Growth Rate” value [2, 11] of the same molecule?
A: 0.98

Q: What about the “Growth Rate” value [2, 7] of the same molecule?
A: 0.94

Q: What about the “Growth Rate” value [3, 9] of the same molecule?
A: -1

Q: What about the “Growth Rate” value [3, 12] of the same molecule?
A: 0.51

Q: What about the “Growth Rate” value [3, 5] of the same molecule?
A: 0.68

Q: What about the “Growth Rate” value [3, 10] of the same molecule?
A: 0.65

Q: And the “Growth Rate” value [3, 11]?
A: 0.49

Q: And the “Growth Rate” value [3, 13]?
A: 0.93

Q: Which results are given for `O=c1ccc2ccc(OCCCCN3CCN(c4cccc5sccc45)CC3)cc2[nH]1` [BREXPIPRAZOLE]?
A: Growth Rate [1, 12]: -0.63; Growth Rate [1, 10]: -0.43; Growth Rate [1, 11]: -0.32; Growth Rate [1, 13]: -0.26; Growth Rate [2, 12]: -0.55; Growth Rate [2, 5]: 0.52; Growth Rate [2, 10]: 0.1; Growth Rate [2, 6]: 0.53; Growth Rate [2, 11]: 0.08; Growth Rate [2, 7]: 0.81; Growth Rate [2, 13]: 0.3; Growth Rate [2, 8]: 0.76; Growth Rate [3, 4]: 0.42; Growth Rate [3, 9]: -0.19; Growth Rate [3, 12]: 0.98
